Measured values published in patent US20240299358A1, “COMPOSITIONS AND METHODS FOR DIAGNOSIS AND TREATMENT OF AUTOIMMUNE DISEASES” (DUKE UNIVERSITY, priority 2021, published 2024).

Tested on: collagen induced arthritic (CIA) mouse model
Test: Therapeutic efficacy in CIA mouse model (clinical score and joint histology)
Format: in vivo
Settings: 30 mg/kg QD
Experimental: FIGS. 9A-9E illustrate therapeutic potential of eHsp90 targeted therapies for the treatment of auto immune diseases. […] FIG. 9D are representative photomicrographs of forepaw, knee and ankle from a disease control (Naïve), diseased vehicle treated and HS-131 treated animals. “W” identifies wrist, arrows identifies representative affected joints, and “S” identifies inflammation. […] Experiment was performed once with 12 biological replicates per group.
CIA Disease: Collagen was prepared at 4 mg/ml in 0.01 N acetic acid. Equal volumes of 4 mg/ml collagen and 5 mg/ml Freund's complete adjuvant were emulsified by hand mixing with syringes for approximately 5 min, at which point a bead of this material holds its form when placed in water. On study days 0 and 21, animals were anesthetized with isoflurane and given intradermal injections of a total of 400 μg of type II collagen in Freund's complete adjuvant at the base of the tail.
CIA Experimental Design: Mice were randomized into treatment groups by body weight on study day 18. Animals were treated from day 21-36 of the study with either 20 μL of HS-131 (30 mg/kg) PO, QD or vehicle (DMSO) PO, QD. On study day 36, the mice were euthanized for necropsy. Clinical scores were given for each of the paws (right front, left front, right rear, left rear) on study days 21-36. 0=normal, 1=one hind or fore paw joints affected or minimal diffuse erythema and swelling, 2=two hind or fore paw joints affected or moderate diffuse erythema and swelling, 3=three hind or fore paw joints affected or moderate diffuse erythema and swelling, 4=four hind or fore paw joints affected or marked diffuse erythema and swelling, 5=entire paw affected, severe diffuse erythema and severe swelling, unable to flex digits. Experimenter was blinded from the treatment group during clinical evaluation and scoring.
Immunohistological Staining: After 24-48 hours in fixative and 4-5 days in 5% formic acid for decalcification, tissues were trimmed, and processed for paraffin embedding. Paws were embedded in paraffin in the frontal plane and the knees were embedded with the patella facing down. Ankles, if left attached to the hind paw, were also embedded in the frontal plane but may be detached and sectioned in the sagittal plane for special purposes. Sections were cut and stained with toluidine blue.
0=Normal. 0.5=Very minimal, affects only 1 joint or minimal multifocal periarticular infiltration of inflammatory cells. 1=Minimal infiltration of inflammatory cells in synovium and periarticular tissue of affected joints. 2=Mild infiltration of inflammatory cells. When referring to paws, generally restricted to affected joints (1-3 affected). 3=Moderate infiltration with moderate edema. When referring to paws, restricted to affected joints, generally 3-4 joints and the wrist or ankle. 4=Marked infiltration affecting most areas with marked edema, 1 or 2 unaffected joints may be present. 5=Severe diffuse infiltration with severe edema affecting all joints (to some extent) and periarticular tissues.
0=Normal. 0.5=Very minimal, affects only one area of the synovium or minimal multifocal periarticular infiltration of inflammatory cells. 1=Minimal infiltration of inflammatory cells in synovium and periarticular tissue of affected synovial areas. 2=Mild diffuse infiltration of inflammatory cells. 3=Moderate diffuse infiltration of inflammatory cells. 4=Marked diffuse infiltration of inflammatory cells. 5=Severe diffuse infiltration of inflammatory cells.
0=Normal. 0.5=Very minimal=Affects marginal zones only of one to several areas (knees) or joints (paws). 1=Minimal=Generally minimal to mild loss of toluidine blue staining (proteoglycan) with no obvious chondrocyte loss or collagen disruption in affected joints/areas. 2=Mild=Generally mild loss of toluidine blue staining (proteoglycan) with focal areas of chondrocyte loss and/or collagen disruption in some affected joints/areas. […]

In the case of `Cc1nn(-c2ccc(C(N)=O)c(NCCCOCCOCCOCCOCCOCCCNCc3ccc(C(=C\C=C4\N(CCCCS(=O)(=O)[O-])c5ccccc5C4(C)C)/C=C/C4=[N+](CCCCS(=O)(=O)O)c5ccccc5C4(C)C)cc3)c2)c2c1C(=O)CC(C)(C)C2` [HS-131], the “pathogenesis of disease development (animals developing disease)” value (day 21-36, N=12/group (FIG. 9A)) is reported as “comparable to the vehicle control”, the “reduction of bone resorption, histological scoring” value (day 36, vs vehicle (FIG. 9E)) is reported as 35% and the “reduction of cartilage damage, histological scoring” value (day 36, vs vehicle (FIG. 9E)) is reported as 36%. The “reduction of inflammation, histological scoring” value (day 36, vs vehicle (FIG. 9E)) was 27%, the “reduction of pannus, histological scoring” value (day 36, vs vehicle (FIG. 9E)) was 35% and the “reduction of periosteal bone, histological scoring” value (day 36, vs vehicle (FIG. 9E)) was 29%. For the same molecule, the “mean clinical arthritic score” value (throughout study period, vs vehicle, p<.001 (FIG. 9B)) was “significantly reduced” and the “decrease in clinical score, area under the curve” value (vs vehicle (FIG. 9C)) was ~23%.
